In ChEMBL document CHEMBL1201862, “PubChem BioAssay data set” (2004):
Several values for one entry are separate records, joined by “and”; a condition that tells them apart may be missing. Identical values can stand only once.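 Following 48 hours of exposure in 96-well plates, responses at five concentrations were used to interpolate endpoints linearly. At the GI50, growth is halved.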 Activity calls are given as the source filed them. Cut-off read from the data, not from the text of the source: active = GI50 up to about 1.1 µM and inactive = higher.

Columns and labels:
Assay in all cases: growth of human tumour cells (NCI), 48 h
LOX IMVI = tested on: LOX IMVI
SF-539 = tested on: SF-539
TK-10 = tested on: TK-10
A549 = tested on: A549
OVCAR-8 = tested on: OVCAR-8
SF-268 = tested on: SF-268
CAKI-1 = tested on: CAKI-1
OVCAR-3 = tested on: OVCAR-3
SN12C = tested on: SN12C
IGROV-1 = tested on: IGROV-1
MDA-MB-435 = tested on: MDA-MB-435
MDA-N = tested on: MDA-N
UACC-257 = tested on: UACC-257
NCI-H23 = tested on: NCI-H23
786-0 = tested on: 786-0
HCT-116 = tested on: HCT-116
T47D = tested on: T47D
CCRF-CEM = tested on: CCRF-CEM
SK-MEL-28 = tested on: SK-MEL-28
MCF7 = tested on: MCF7
BT-549 = tested on: BT-549
NCI-H522 = tested on: NCI-H522
SK-MEL-5 = tested on: SK-MEL-5
Hs-578T = tested on: Hs-578T
DU-145 = tested on: DU-145
KM12 = tested on: KM12
EKVX = tested on: EKVX
SNB-19 = tested on: SNB-19
HT-29 = tested on: HT-29
SK-OV-3 = tested on: SK-OV-3
M14 = tested on: M14
U-251 = tested on: U-251
COLO 205 = tested on: COLO 205
MDA-MB-231 = tested on: MDA-MB-231
MOLT-4 = tested on: MOLT-4
SW-620 = tested on: SW-620
RXF 393 = tested on: RXF 393
SNB-75 = tested on: SNB-75
HOP-62 = tested on: HOP-62
UACC-62 = tested on: UACC-62
Malme-3M = tested on: Malme-3M
NCI-H226 = tested on: NCI-H226
PC-3 = tested on: PC-3
A498 = tested on: A498
HOP-92 = tested on: HOP-92
ACHN = tested on: ACHN
HCC 2998 = tested on: HCC 2998
SF-295 = tested on: SF-295
UO-31 = tested on: UO-31
NCI/ADR-RES = tested on: NCI/ADR-RES
OVCAR-5 = tested on: OVCAR-5
OVCAR-4 = tested on: OVCAR-4
HCT-15 = tested on: HCT-15
NCI-H460 = tested on: NCI-H460
SK-MEL-2 = tested on: SK-MEL-2
RPMI-8226 = tested on: RPMI-8226

In the case of `C=CCN1C(=O)/C(=C/c2ccc(Cl)cc2)N=C1SC1OC(COC(C)=O)C(OC(C)=O)C(OC(C)=O)C1OC(C)=O` (configuration not stated), the GI50 (LOX IMVI) is reported as 22.9 µM (inactive) and 29.9 µM (inactive), the GI50 (SF-539) is reported as 33 µM (inactive) and 25.3 µM (inactive) and the GI50 (TK-10) is reported as 46.2 µM (inactive) and > 42.6 µM (inactive). For the same compound, the GI50 (A549) was 14.4 µM (inactive), the GI50 (OVCAR-8) was 15.7 µM (inactive) and 8.43 µM (inactive) and the GI50 (SF-268) was 1.64 µM (inactive). The GI50 (CAKI-1) was 10.9 µM (inactive) and 9.93 µM (inactive), the GI50 (OVCAR-3) was 11.6 µM (inactive) and 18.5 µM (inactive) and the GI50 (SN12C) was 16.5 µM (inactive). For the same compound, the GI50 (IGROV-1) was 22.4 µM (inactive) and 33 µM (inactive), the GI50 (MDA-MB-435) was 14 µM (inactive) and 13.8 µM (inactive) and the GI50 (MDA-N) was 25.8 µM (inactive). For the same compound, the GI50 (UACC-257) was 18.9 µM (inactive) and 12.2 µM (inactive), the GI50 (NCI-H23) was 20 µM (inactive) and 25.1 µM (inactive) and the GI50 (786-0) was 3.5 µM (inactive). The GI50 (HCT-116) was 5.02 µM (inactive), the GI50 (T47D) was 8.51 µM (inactive) and the GI50 (CCRF-CEM) was 37.2 µM (inactive). For the same compound, the GI50 (SK-MEL-28) was 39.4 µM (inactive) and 56.9 µM (inactive), the GI50 (MCF7) was 12.7 µM (inactive) and 7.41 µM (inactive) and the GI50 (BT-549) was 31.3 µM (inactive) and 15.7 µM (inactive). For the same compound, the GI50 (NCI-H522) was 2.98 µM (inactive) and 3.81 µM (inactive), the GI50 (SK-MEL-5) was 26.6 µM (inactive) and 15.8 µM (inactive) and the GI50 (Hs-578T) was 2.54 µM (inactive). The GI50 (DU-145) was 24 µM (inactive) and 14.6 µM (inactive), the GI50 (KM12) was 30.2 µM (inactive) and 22.8 µM (inactive) and the GI50 (EKVX) was 24.3 µM (inactive) and 33.4 µM (inactive). The GI50 (SNB-19) was 15.8 µM (inactive), the GI50 (HT-29) was 35.6 µM (inactive) and the GI50 (SK-OV-3) was > 39.8 µM (inactive) and 27.1 µM (inactive). The GI50 (M14) was 28.1 µM (inactive).

For `NC1=CC(C(=O)c2ccncc2)c2nc3ccccc3nc21` (configuration not stated), the GI50 (LOX IMVI) was 22.7 µM (inactive), the GI50 (SF-539) was > 100 µM (inactive) and the GI50 (U-251) was > 100 µM (inactive). The GI50 (COLO 205) was > 100 µM (inactive), the GI50 (TK-10) was > 100 µM (inactive) and the GI50 (MDA-MB-231) was > 100 µM (inactive). For the same compound, the GI50 (A549) was > 100 µM (inactive), the GI50 (OVCAR-8) was 63.5 µM (inactive) and the GI50 (MOLT-4) was > 100 µM (inactive). For the same compound, the GI50 (SF-268) was > 100 µM (inactive), the GI50 (CAKI-1) was 42.2 µM (inactive) and the GI50 (SW-620) was > 100 µM (inactive). For the same compound, the GI50 (RXF 393) was > 100 µM (inactive), the GI50 (OVCAR-3) was > 100 µM (inactive) and the GI50 (SN12C) was > 100 µM (inactive). For the same compound, the GI50 (SNB-75) was 52 µM (inactive), the GI50 (IGROV-1) was 46.6 µM (inactive) and the GI50 (HOP-62) was 44.2 µM (inactive). For the same compound, the GI50 (MDA-MB-435) was > 100 µM (inactive), the GI50 (MDA-N) was > 100 µM (inactive) and the GI50 (UACC-257) was > 100 µM (inactive). The GI50 (UACC-62) was > 100 µM (inactive), the GI50 (Malme-3M) was > 100 µM (inactive) and the GI50 (NCI-H226) was > 100 µM (inactive). For the same compound, the GI50 (PC-3) was > 100 µM (inactive), the GI50 (NCI-H23) was 63 µM (inactive) and the GI50 (A498) was > 100 µM (inactive). The GI50 (786-0) was > 100 µM (inactive), the GI50 (HOP-92) was > 100 µM (inactive) and the GI50 (HCT-116) was > 100 µM (inactive). The GI50 (T47D) was > 100 µM (inactive), the GI50 (CCRF-CEM) was > 100 µM (inactive) and the GI50 (SK-MEL-28) was > 100 µM (inactive). For the same compound, the GI50 (ACHN) was 59.2 µM (inactive), the GI50 (HCC 2998) was > 100 µM (inactive) and the GI50 (SF-295) was 94.4 µM (inactive). The GI50 (MCF7) was > 100 µM (inactive), the GI50 (BT-549) was > 100 µM (inactive) and the GI50 (UO-31) was > 100 µM (inactive). For the same compound, the GI50 (NCI-H522) was > 100 µM (inactive), the GI50 (SK-MEL-5) was > 100 µM (inactive) and the GI50 (Hs-578T) was 57 µM (inactive). For the same compound, the GI50 (DU-145) was > 100 µM (inactive), the GI50 (NCI/ADR-RES) was > 100 µM (inactive) and the GI50 (OVCAR-5) was > 100 µM (inactive). The GI50 (OVCAR-4) was > 100 µM (inactive), the GI50 (KM12) was > 100 µM (inactive) and the GI50 (HCT-15) was 92.7 µM. For the same compound, the GI50 (EKVX) was > 100 µM (inactive), the GI50 (SNB-19) was > 100 µM (inactive) and the GI50 (HT-29) was 68.5 µM (inactive). For the same compound, the GI50 (SK-OV-3) was > 100 µM (inactive), the GI50 (NCI-H460) was 75.5 µM (inactive) and the GI50 (M14) was > 100 µM (inactive). The GI50 (SK-MEL-2) was > 100 µM (inactive) and the GI50 (RPMI-8226) was > 100 µM (inactive).
